Measurements published in US4450170A, “Treatment of diarrhoea with 2-aminoimidazoline derivatives” (Beecham Group Limited, priority 1980, dated 1984).
“And” between values parts separate entries of the source, which are not always exact repeats. Equal entries are not always repeated. Structures can show the parent of a compound that is named as a salt.

Assays:
[1] = test system: fluid secretion caused by the enterotoxin(s) present in culture filtrate from an enteropathogenic strain of E. coli; assay: animal or person; type: in vivo, infant mice; conditions: for activity in the reduction of fluid secretion (in words): mouse, in vivo
[2] = test system: diarrhoea induced by culture filtrate from an enteropathogenic strain of E. coli; set-up: species or system 2-4 day old piglets; conditions: in vivo, po
E. coli P16 = assay: Inhibition of Diarrhoea Resulting from E. coli Infection (piglets); type: in vivo, colostrum deprived piglets; conditions: Group B, Neomycin 30 mg/Kg po
Experimental: 2-4 day old piglets were dosed with the compound orally 45 mins prior to oral challenge with 25 ml of culture filtrate prepared from an enteropathogenic strain of E. coli. Control animals received drug vehicle 45 mins prior to challenge with a similar volume of material. […] After 6 hours observation some piglets were given a second dose of drug (or placebo) and observations were continued for a further six hours. The percentage inhibition in treated animals was determined as: [formula]
Colostrum deprived piglets were infected with 5 ml of an overnight culture containing 10^8 -10^9 viable E. coli P16/ml. The following day, piglets were matched by weight and scour score and then treated and observed for 6 hours in a similar manner to toxin challenged piglets, as described above.

Row | Compound | inhibition in vivo at 10 mg/kg ([1]; Mus musculus, po) | inhibition in vivo at 50 mg/kg ([1]; Mus musculus, po) | inhibition in vivo at 200 mg/kg ([1]; Mus musculus, po) | further results
1 | Nc1cc(Br)c(NC2=NCCN2)c(Br)c1 [Example 12, 2-(4-amino-2,6-dibromophenylimino)imidazolidine] | 48% | 65% | 85% | –
2 | Cc1cc(N)cc(C)c1N=C1NCCN1 [Example 13, 2-(4-amino-2,6-dimethylphenylimino)imidazolidine] | 66% | 54% | 69% | % inhibition of scour [2]: 78% and 69% and 62%; Mean Scour Score ± SEM, drug treated [2]: 0.5 ± 0.2 and 0.6 ± 0.3 and 0.6 ± 0.2
3 | NCc1cc(Cl)c(N=C2NCCN2)c(Cl)c1 [Example 14, 2-(4-aminomethyl-2,6-dichlorophenylimino)imidazolidine] | – | 38% | 39% | –
4 | CCN(CC)Cc1cc(Cl)c(N=C2NCCN2)c(Cl)c1 [Example 15, 2-(2,6-dichloro-4-diethylaminomethylphenylimino)imidazolidine] | – | 28% | 37% | inhibition in vivo at 500 mg/kg ([1]; Mus musculus, po): 42%
5 | Clc1cc(N=C2NCCN2)cc(Cl)c1NC1=NCCN1 [Example 16, 2-(2,6-dichloro-4-imidazolino-2-iminophenylimino)imidazolidine] | – | – | – | inhibition in vivo at 100 mg/kg ([1]; Mus musculus, po): 29%; inhibition in vivo at 400 mg/kg ([1]; Mus musculus, po): 41%
6 | CNC(=Nc1cc(Cl)c(NC2=NCCN2)c(Cl)c1)NC [Example 17, 2-[2,6-dichloro-4-(1,3-dimethylguanidino)phenylimino]imidazolidine] | 33% | 37% | 53% | –
7 | CN(C)C(=O)C(CCN1CCC(O)(c2ccc(Cl)cc2)CC1)(c1ccccc1)c1ccccc1 [Loperamide, reference compound] | – | – | – | activity in the reduction of fluid secretion (in words) [1]: considerably less active than the p-amino Clonidine dihydrochloride
8 | CN(C1=NCCN1)c1c(Cl)cc(N)cc1Cl [R5 H, R6 CH3, Ra p-NH2, Rb o-Cl, R11 Cl] | 37% | 62% | 72% | –
9 | CCNc1cc(Cl)c(NC2=NCCN2)c(Cl)c1 [R5 H, R6 H, Ra p-NHEt, Rb o-Cl, R11 Cl] | 59% | 79% | 97% | –
10 | Nc1cc(Cl)c(NC2=NCCN2)c(Cl)c1 [p-Amino clonidine dihydrochloride, p-amino Clonidine dihydrochloride] | 59% | 78% | – | ED50 ([1]; Mus musculus, po, read-out: calculated ED50): 0.25 mg/kg; activity in the reduction of fluid secretion (in words) [1]: high level of activity; % inhibition of scour [2]: 79%; Mean Scour Score ± SEM, drug treated [2]: 0.4 ± 0.2
11 | Neomycin | – | – | – | % inhibition of scour (E. coli P16): 16%; Mean Scour Score ± SEM (E. coli P16; placebo 2.9 ± 0.1): 2.4 ± 0.2; Mortality over 7 days (E. coli P16; placebo 25%): 0%
